Results taken from US11447534B2, “Peptide complex with immunodulatory and anti-inflammatory function” (NATIONAL INSTITUTE OF IMMUNOLOGY, priority 2018, dated 2022).

Experiments:
CD36 scavenger receptor = assay: Flow cytometry of cell surface CD36 in macrophages; type: cell-based, murine; details: 1 hour exposure, FACS
Protocol: To determine the immunomodulatory effect of A-O complex, serum starved macrophages were exposed to the complex. Macrophages (1×10^6 cells) were serum starved for 30 min after which cells were exposed to A-O complex. After 1 hour, cells were washed with 1×PBS (pH 7.4) and harvested using cell dissociation solution. Then the cells were suspended in ice cold staining buffer (100 μl) and centrifuged at 1000 rpm for 5 min at 4° C. The cells were resuspended in 100 μl ice cold staining buffer for 10 min at 2-8° C. and pellet resuspended in 50 μl staining media. To this 2 μl of Fc block or anti-mouse CD16/CD32 was added for 10 mins and washed with staining buffer. The cells were resuspended in 50 μl of staining buffer and incubated with fluorescent-tagged CD36 antibody (e-biosciences) for 25-30 min on ice. The excess stain was removed by washing and pelleting down using staining buffer thrice by spinning and removal of staining buffer. The cell suspension was fixed 1:1 ratio (staining buffer:fixative) and analysed within 48 h in ARIA3 DIVA software version 6.1. Further, expression of MHC-II, and CD-36, was also determined in the microglial cells via qPCR. […] Following amplification, fold changes in gene expression versus β-actin (reference) analysis was determined using the 2^ΔΔCT(Livak) method.

EOC20 microglial cells = assay: F-actin confocal microscopy of unstimulated EOC20 microglia; type: cell-based; details: serum starved, 1 hour
Method: To determine the morphological changes in microglia upon exposure to A-O complex, F-actin confocal microscopy was performed. For that poly-L-lysine coated coverslips were placed in the 24 well culture dishes containing 1 ml of complete media and cells were seeded over the cover slips. […] Post treatment, the cell culture media was then removed and cells were washed thrice with 1×PBS (pH 7.4). Cells were fixed in 4% PFA for 10 min at room temperature and then washed thrice with 1×PBS (pH 7.4). Cells were then exposed to Phalloidin-actin (F-actin) antibody for 20 min in the dark. Thereafter, cells were washed twice with 1×PBS (pH7.4) and mounted using DAPI Fluormount (Invitrogen, Carlsbad, Calif., USA). Cells were imaged on a Zeiss LSM510 META laser-scanning confocal microscope. A PlanApochromat 63/1.4 oil-immersion DIC M27 objective (Zeiss) was used for image acquisition. [Concentration of Phalloidin-actin antibody: 300 U of Phalloidin-actin (Invitrogen, Carlsbad, USA) was dissolved in 1.5 ml methanol to yield a concentration of 200 U/ml or 6.6 μM. 1 U of phalloidin is equal to 5 μl of methanolic stock].

RAW264.7 macrophages = assay: Lactate dehydrogenase (LDH) assay in macrophages; type: cell-based, murine
Protocol: Effect of Abeta-Glu-OC (3 ng) mixture on macrophage integrity: To determine whether the mixture produced any toxicity lactate dehydrogenase (LDH) assay was performed. Briefly, the cells were incubated with the mixture under serum starved conditions for 1 hour followed by LDH assay. LDH was assayed using In vitro toxicology assay kit from Sigma-Aldrich, St. Louis, Mo., USA (cat. no.-TOX7) as per the manufacturer's directions. LDH assay substrate solution, LDH assay dye solution and 1×LDH assay cofactor were provided with the kit. […] To this LDH assay mixture was added and incubated at room temperature in the dark for 20-30 min. The reaction was terminated by the addition of 1/10 volume of 1N HCl. Absorption was taken 490 nm with the help of in a Tecan Microplate reader, Switzerland with Magellan™ software.

[1] = system: carrageenan induced paw edema; assay: Carrageenan induced paw inflammation in mice; type: in vivo, mouse
Protocol: The effect of A-O complex was tested under in vivo conditions. Carrageenan, an inflammation inducing agent was injected into the hind foot pad of mouse to induce acute inflammation. The edema attains peak at around 3 hours post carrageenan challenge. This is a convenient model to assess the anti-inflammatory potency of test drugs to reduce or prevent the development of swelling. The protocol followed herein is as per Morris (2003) [Morris C J, 2003, Carrageenan induced paw edema in rat and mouse. In: Winyard P. G., Willoughby D. A. (eds) Inflammation Protocols. Methods in Molecular Biology, Vol 225. Humana Press. Pp 115-121].
Preparation of carrageenan: To prepare 0.5% of carrageenan solution, 50 mg of lamda-carrageenan ([…], Sigma Chemical Co., St. Louis, Mo., USA) was slowly added onto a small beaker containing 10 ml of normal saline. The powder was allowed to swell for some time and then slightly heated (not boiled) to dissolve the carrageenan. The solution was stirred during the heating. Once dissolved, the solution was cooled and aliquoted and stored at 4 degree Celsius.
Method: For experiment, the mice were acclimatized in cages under standard light and temperature settings with access to food and water ad libitum. Mice were acclimatized for 1 week in respective cages to minimize stress. At the day of experiment, mice were placed in a temporary animal restraint and 50 microlitre of carrageenan solution was administered by intraplantar injection to the right hind paw of each mouse. The left paw served as control and was administered 50 microlitre of normal saline.
To determine the efficacy of A-O complex different concentrations of complex viz. 5, 20 and 50 microgram per 100 g body weight of mice were administered intraperitoneally 1 hour before carrageenan challenge. Ibuprofen (100 mg/kg, Sigma Chemical Co., St. Louis, Mo., USA) served as positive control for the experiment. Paw size was measured by wrapping a piece of cotton thread round the paw of each […] and recording the length of the thread, the paw circumference, by use of a metric ruler. Paws were measured immediately before and at specified time points after carrageenan injection. Inhibitory activity was calculated at 1-5 h after carrageenan injection with the following formula: % Inhibition=[(Ct−C0)control−(Ct−C0)treated]/(Ct−C0)control×100, where Ct is paw size after carrageenan injection and C0 is paw size before carrageenan injection.

[2] = system: carrageenan challenged mice; assay: Carrageenan induced nitrite production in serum (Griess reaction); type: in vivo, mouse; details: 50 microgram of A-O complex, 3rd hour post carrageenan challenge
Protocol: Measurement of nitric oxide in serum: Nitric oxide concentration in serum of carrageenan challenged mice with or without treatment was determined by the Griess reaction as an indicator of nitric oxide production as previously reported by Prado (2002) [Prado W A, Schiavon V F, Cunha F Q. Dual effect of local application of nitric oxide donors in a model of incision pain in rats. Eur J Pharmacol. 2002; 441:57-65]. Briefly, 100 microlitre of sera and 100 microlitre of Griess reagent (mix of 2% sulphanilamide in 5% phosphoric acid and 0.2% N(1-naphthyl) ethylenediamine hydrochloride) were mixed in 96-well ELISA plate and Absorbance was read at 550 nm. The concentration of nitrite was determined using a standard curve of sodium nitrite.

In the case of “A-O complex: peptide complex of 100 μM Abeta1-42 (SEQ ID NO: 1) and 3 ng Glu-OC (SEQ ID NO: 2), incubated at 37° C. for 4 hours”, the “cell surface protein expression of CD36 receptor” value (CD36 scavenger receptor) is reported as “increased cell surface protein expression”, the “microglia morphology (F-actin)” value (EOC20 microglial cells) is reported as “rounded morphology with projections indicative of activation” and the “intracellular LDH” value (RAW264.7 macrophages) is reported as “did not show any rise in intracellular LDH”. The “reduction in paw edema” value ([1]; 5 microgram per 100 g body weight i.p. 1 hour before carrageenan, first value (1 hour)) was 25%, the “reduction in paw edema” value ([1]; 5 microgram per 100 g body weight i.p., second value (3rd hour)) was 48% and the “reduction in paw edema” value ([1]; 5 microgram per 100 g body weight i.p., third value (5th hour)) was 58%. For the same substance, the “reduction in paw edema” value ([1]; 20 microgram per 100 g body weight i.p., first value (1 hour)) was 30%, the “reduction in paw edema” value ([1]; 20 microgram per 100 g body weight i.p., second value (3rd hour)) was 60% and the “reduction in paw edema” value ([1]; 20 microgram per 100 g body weight i.p., third value (5th hour)) was 65%. The “reduction in paw edema” value ([1]; 50 microgram per 100 g body weight i.p., first value (1 hour)) was 30%, the “reduction in paw edema” value ([1]; 50 microgram per 100 g body weight i.p., second value (3rd hour)) was 57% and the “reduction in paw edema” value ([1]; 50 microgram per 100 g body weight i.p., third value (5th hour)) was 65%. For the same substance, the serum nitrite level [2] was “maximal efficiency to reduce serum nitrite level”.
